Measurements from the NIST ThermoML archive (doi:10.1016/j.fluid.2018.01.017).
Numbers after ± are expanded uncertainties.

Key:
[1] = xn = mol fraction of the nth substance listed; details: 298.15 K, 86.6 kPa, Liquid; for speed of sound: Anton Parr, DSA 5000 densimeter and speed of sound analyzer; for mass density: Vibrating tube method
[2] = refractive index (Na D-line) (dimensionless); xn = mol fraction of the nth substance listed; details: 298.15 K, 86.6 kPa, Liquid, Standard Abbe refractometry

O=C(O)C(=O)O [ethanedioic acid] + C[N+](C)(C)CCO.[Cl-]
speed of sound ([1]; x2 = 0.5): 1925 ± 1.7 m/s
mass density ([1]; x2 = 0.5): 1210.93 ± 0.5 kg/m3
refractive index ([2]; x2 = 0.5): 1.4809 ± 0.0005

NC(N)=O [urea] + C[N+](C)(C)CCO.[Cl-]
speed of sound ([1]; x2 = 0.333): 2062.3 ± 2.2 m/s
mass density ([1]; x2 = 0.333): 1193.93 ± 0.94 kg/m3
refractive index ([2]; x2 = 0.333): 1.5041 ± 0.0006

O=C(O)CC(=O)O [propanedioic acid] + C[N+](C)(C)CCO.[Cl-]
speed of sound ([1]; x2 = 0.5): 1962.7 ± 1.7 m/s
mass density ([1]; x2 = 0.5): 1251.47 ± 0.54 kg/m3
refractive index ([2]; x2 = 0.5): 1.4887 ± 0.0005
